This passage reports IC50 results from patent publication US9890147B2 (BAYER PHARMA AKTIENGESELLSCHAFT, priority 2012, dated 2018).

In one test the test system is LAPC-4 cells. The test can be described thus: Cell proliferation assay (alamarBlue), LAPC-4. Type of test: cell-based. The conditions noted are these: Homo sapiens, LAPC4; inhibition of cell proliferation, LAPC-4 (prostate cancer), 1 nM methyltrienolone, 168 hours. The procedure: (§1) In accordance with the invention, the capability of the substances to inhibit cell proliferation was determined Cell viability was determined using the alamarBlue® reagent (Invitrogen) in a Victor X3 Multilabel Reader (Perkin Elmer). The excitation wavelength was 530 nm and the emission wavelenth […].
The LAPC-4 cells (ATCC, PTA-1441TM) were sown at a concentration of 4000 cells/well in 100 μl growth medium (RPMI1640, 2 mM L-glutamine, 10% cFCS) on 96-well microtitre plates. A day later, the LAPC-4 cells were treated with 1 nM methyltrienolone and various substance dilutions.
(§2) After an overnight incubation at 37° C., the fluorescence values (CI values) were determined. The plates were then treated with various substance dilutions (1E-5 M, 3E-6 M, 1E-6M, 3E-7 M, 1E-7 M, 3E-8 M, 1E-8 M) and incubated at 37° C. for 72 (MV4-11-, LOX-IMVI cells), 96 (MOLM-13-, B16F10-, MDA-MB-431-, Caov-3 cells), 120 (MOLP-8-, KMS-12-PE cells) or 168 (LAPC-4 cells) hours. The fluorescence values (CO values) were then determined. For the data analysis, the CI values were subtracted from the CO values and the results were compared between cells treated with different dilutions of the substance or with buffer solution only. These were used to calculate the IC 50 values (substance concentration required for 50% inhibition of cell proliferation).
In general terms: The colour change of resazurin is a common sign of viable cells or microbes.

The target in a further test is T1, BRD4 (BD1) (Homo sapiens, UniProt O60885).
T1 construct: with relatively long constructs also being possible, preferably amino acids 44-168; made in house; host or cells: E. coli
The test can be described thus: Binding assay BRD4/acetylated peptide H4 (TR-FRET protein-protein interaction assay). A digest of the protocol:
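His6-BRD4 BD1 (aa 67-152, E. coli), usually 10 nM, with biotinylated tetra-acetylated H4 peptide in HEPES pH 7.5 buffer; 11 compound concentrations 0.1 nM–20 μM in duplicate, 10 min preincubation, 1 h at 22 °C then ≥3 h at 4 °C. TR-FRET 665/620 ratio; IC50 by 4-parameter fit.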

For another test, the system named is B16F10 cells. The test can be described thus: Cell proliferation assay (alamarBlue), B16F10. It is filed as cell-based. Conditions: Mus musculus, B16-F10, 96 hours incubation, inhibition of cell proliferation. How it is done: as §1
The B16F10 cells (ATCC, CRL-6475) were sown at a concentration of 300-500 cells/well in 100 μl growth medium (DMEM with phenol red, 10% FCS) on 96-well microtitre plates.
as §2

The test system of a further test is MOLM-13 cells. Kind of test: Cell proliferation assay (alamarBlue), MOLM-13. Type of test: cell-based. The conditions noted are these: Homo sapiens, 96 hours incubation, inhibition of cell proliferation. The essentials:
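Cells in RPMI1640/10% FCS read by alamarBlue fluorescence (ex 530, em 590 nm) after overnight 37 °C incubation, then treated at 1E-5 to 1E-8 M for 96 h. Pre-treatment values subtracted from endpoint values and compared with buffer-only wells; IC50 is 50% proliferation inhibition.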

For a further test, the system named is MDA-MB-231 cells. The test can be described thus: Cell proliferation assay (alamarBlue), MDA-MB-231. Conditions: Homo sapiens; inhibition of cell proliferation, MDA-MB-231 (breast carcinoma), 96 hours. It is filed as cell-based. The procedure: as §1
The MDA-MB-231 cells (DSMZ, ACC 732) were sown at a concentration of 4000 cells/well in 100 μl growth medium (DMEM/Ham's F12 medium, 10% FCS) on 96-well microtitre plates. The Caov-3 cells (ATCC, HTB-75) were sown at a concentration of 2000 cells/well in 100 μl growth medium (MEM Earle's medium, 10% FCS) on 96-well microtitre plates.
as §2

For the next test, the system named is MV4-11 cells. Kind of test: Cell proliferation assay (alamarBlue), MV4-11. Type of test: cell-based. Conditions: Homo sapiens, 72 hours incubation, inhibition of cell proliferation. The essentials:
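Cells seeded at 5000/well in RPMI1640 + 10% FCS, incubated overnight at 37° C, then treated with compound (1E-5 to 1E-8 M) for 72 h at 37° C. Viability by alamarBlue fluorescence (ex 530/em 590 nm); pre-treatment readings subtracted, IC50 derived versus buffer-treated cells.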

The test system of another test is Caov-3 cells. Kind of test: Cell proliferation assay (alamarBlue), Caov-3. Type of test: cell-based. Conditions: Homo sapiens; inhibition of cell proliferation, Caov-3 (ovarian carcinoma), 96 hours. The essentials: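 Caov-3 (MEM Earle's, 10% FCS, 2000 cells/well) and MDA-MB-231 (DMEM/Ham's F12, 10% FCS, 4000 cells/well) were treated after overnight attachment with 1E-5 to 1E-8 M compound. Caov-3 exposure was 96 h. alamarBlue fluorescence (ex 530, em 590 nm) was read after background subtraction of day-0 values, and IC50 calculated versus buffer-treated cells.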

A further test relates to KMS-12-PE cells. The test can be described thus: Cell proliferation assay (alamarBlue), KMS-12-PE. Type of test: cell-based. The conditions noted are these: Homo sapiens, 120 hours incubation, inhibition of cell proliferation. The essentials:
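KMS-12-PE myeloma cells in RPMI1640 with 20% FCS were exposed to compound (1E-5 to 1E-8 M) for 120 h at 37° C. AlamarBlue fluorescence (ex 530, em 590 nm) read before and after treatment; the difference versus buffer-treated cells gave IC50.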

A further test deals with MOLP-8 cells. Kind of test: Cell proliferation assay (alamarBlue), MOLP-8. It is filed as cell-based. Conditions: Homo sapiens, 120 hours incubation, inhibition of cell proliferation. The essentials: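 MOLP-8 cells in RPMI1640 with 20% FCS, 4000 cells/well, treated overnight after seeding with substance at 1E-5 to 1E-8 M for 120 h at 37° C. Viability read by alamarBlue fluorescence (ex 530, em 590); pre-treatment values subtracted, compared with buffer-only cells to derive IC50.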

The test system of another test is LOX-IMVI cells. Kind of test: Cell proliferation assay (alamarBlue), LOX-IMVI. Type of test: cell-based. Conditions: Homo sapiens, 72 hours incubation, inhibition of cell proliferation. A digest of the protocol: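 Cells seeded at 1000/well in RPMI1640 with 10% FCS, incubated overnight at 37° C, then treated with dilutions from 1E-5 to 1E-8 M for 72 h. Viability read by alamarBlue fluorescence (ex 530/em 590 nm); pre-treatment values subtracted and compared with buffer-only cells to derive IC50.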

Each structure is given as a SMILES string.

Turning to `CNC(=O)N1N=C(c2ccc(Cl)cc2)c2cc(-c3ccncc3)ccc2CC1C` (racemic) [Example 8, (±)-1-(4-Chlorophenyl)-N,4-dimethyl-8-(pyridin-4-yl)-4,5-dihydro-3H-2,3-benzodiazepine-3-carboxamide], the IC50 (usually the point on the concentration scale where inhibition reaches its midpoint) with LAPC-4 cells was 180 nM; at BRD4 (BD1) it was 90 nM; with B16F10 cells, 190 nM; in the test on MOLM-13 cells, 380 nM; with MDA-MB-231 cells, 280 nM.
As for `CNC(=O)N1N=C(c2ccc(N3CCOCC3)cc2)c2cc(OC)ccc2C[C@@H]1C` [Example 17, (4S)-8-Methoxy-N,4-dimethyl-1-[4-(morpholin-4-yl)phenyl]-4,5-dihydro-3H-2,3-benzodiazepine-3-carboxamide], the IC50 in the test on MV4-11 cells was 130 nM; with LAPC-4 cells, 100 nM; at BRD4 (BD1), 40 nM; in the test with Caov-3 cells it was 220 nM; in the test on MOLM-13 cells it was 170 nM; in the test on KMS-12-PE cells, 110 nM. The IC50 was determined as 110 nM in the test with MOLP-8 cells, 210 nM in the test with MDA-MB-231 cells and 300 nM in the test on LOX-IMVI cells.
As for `CNC(=O)N1N=C(c2ccc(-c3c(C)noc3C)cc2)c2cc(OC)ccc2C[C@@H]1C` [Example 20, (4S)-1-[4-(3,5-dimethyl-4-isoxazolyl)phenyl]-8-methoxy-N,4-dimethyl-4,5-dihydro-3H-2,3-benzodiazepine-3-carboxamide], the IC50 stood at 140 nM in the test with MV4-11 cells; 120 nM in the test on LAPC-4 cells; 70 nM at BRD4 (BD1); 240 nM with Caov-3 cells; 190 nM in the test on MOLM-13 cells; 110 nM with KMS-12-PE cells. Moreover, the IC50 stood at 120 nM in the test with MOLP-8 cells, 220 nM in the test on MDA-MB-231 cells and 330 nM in the test with LOX-IMVI cells.
Consider `CNC(=O)N1N=C(c2ccc(-n3nc(C)cc3C)cc2)c2cc(OC)ccc2C[C@@H]1C` [Example 16, (4S)-1-[4-(3,5-Dimethyl-1H-pyrazol-1-yl)phenyl]-8-methoxy-N,4-dimethyl-4,5-dihydro-3H-2,3-benzodiazepine-3-carboxamide], for which the IC50 amounted to 270 nM with MV4-11 cells; 110 nM in the test with LAPC-4 cells; 50 nM on BRD4 (BD1); 370 nM in the test on Caov-3 cells; 220 nM in the test with MOLM-13 cells; 250 nM in the test on KMS-12-PE cells. Further, the IC50 with MOLP-8 cells was 290 nM; in the test with MDA-MB-231 cells it was 470 nM; with LOX-IMVI cells it was 640 nM.
For the molecule `CNC(=O)N1N=C(c2ccc(Cl)cc2)c2cc(OC(F)(F)F)ccc2CC1C` (racemic) [Example 1, (±)-1-(4-Chlorophenyl)-N,4-dimethyl-8-(trifluoromethoxy)-4,5-dihydro-3H-2,3-benzodiazepine-3-carboxamide], the IC50 in the test with LAPC-4 cells worked out at 600 nM; at BRD4 (BD1), 190 nM; in the test with B16F10 cells, 690 nM; in the test with MOLM-13 cells, 1260 nM; in the test with MDA-MB-231 cells, 900 nM.
For the molecule `CNC(=O)N1N=C(c2ccc(Cl)cc2)c2cc(N3CCN(C)CC3)ccc2CC1C` (racemic) [Example 12, (±)-1-(4-Chlorophenyl)-N,4-dimethyl-8-(4-methylpiperazin-1-yl)-4,5-dihydro-3H-2,3-benzodiazepine-3-carboxamide], the IC50 is 870 nM in the test on LAPC-4 cells; 540 nM at BRD4 (BD1); 1320 nM with B16F10 cells; 1610 nM in the test with MOLM-13 cells; 1850 nM in the test on MDA-MB-231 cells.
In the same order, the values of `CNC(=O)N1N=C(c2cccnc2)c2cc(OC)ccc2CC1C` (racemic) [Example 14, (±)-8-Methoxy-N,4-dimethyl-1-(pyridin-3-yl)-4,5-dihydro-3H-2,3-benzodiazepine-3-carboxamide] are 1650 nM, 590 nM, 2630 nM, 3070 nM and 3640 nM.
For `CNC(=O)N1N=C(c2ccc(Cl)cc2)c2cc(-c3ccc(S(=O)(=O)NC)cc3)ccc2CC1C` (racemic) [Example 10, (±)-1-(4-chlorophenyl)-N,4-dimethyl-8-{4-[(methylamino)sulphonyl]phenyl}-4,5-dihydro-3H-2,3-benzodiazepine-3-carboxamide], the 50% inhibitory concentration (IC50) in the test with LAPC-4 cells worked out at 120 nM; at BRD4 (BD1), 160 nM; with B16F10 cells, 270 nM; with MOLM-13 cells it was 310 nM; in the test with MDA-MB-231 cells it was 260 nM.
Regarding `CNC(=O)N1N=C(c2ccc(Cl)cc2)c2cc(N3CCOCC3)ccc2CC1C` (racemic) [Example 11, (±)-1-(4-Chlorophenyl)-N,4-dimethyl-8-(morpholin-4-yl)-4,5-dihydro-3H-2,3-benzodiazepine-3-carboxamide], the 50% inhibitory concentration (IC50) in the test on LAPC-4 cells was 450 nM; at BRD4 (BD1), 310 nM; in the test on B16F10 cells, 1120 nM; with MOLM-13 cells it was 1910 nM; in the test with MDA-MB-231 cells, 2580 nM.
For `CNC(=O)N1N=C(c2ccc(-c3ccc(C(=O)O)s3)cc2)c2cc(OC)c(OC)cc2CC1C` (racemic) [Example 5, (±)-5-(4-{7,8-dimethoxy-4-methyl-3-[(methylamino)carbonyl]-4,5-dihydro-3H-2,3-benzodiazepin-1-yl}phenyl)thiophene-2-carboxylic acid] the same measures were 270 nM, 30 nM, 690 nM, 820 nM and 1350 nM.
As for `CNC(=O)N1N=C(c2ccc(-c3c(C)noc3C)cc2)c2cc(OC)c(OC)cc2C[C@H]1C` [Example 2.1, (4R)-1-[4-(3,5-Dimethyl-4-isoxazolyl)phenyl]-7,8-dimethoxy-N,4-dimethyl-4,5-dihydro-3H-2,3-benzodiazepine-3-carboxamide], the IC50 in the test on LAPC-4 cells stood at 710 nM; at BRD4 (BD1), 250 nM; in the test on B16F10 cells, 1050 nM; in the test on MOLM-13 cells, 1510 nM; with MDA-MB-231 cells, 1390 nM.
For `CNC(=O)N1N=C(c2ccc(Cl)cc2)c2cc(OC(F)(F)F)ccc2C[C@H]1C` [Example 1.2, (4R)-1-(4-Chlorophenyl)-N,4-dimethyl-8-(trifluoromethoxy)-4,5-dihydro-3H-2,3-benzodiazepine-3-carboxamide] the same measures were 5170 nM, 2500 nM, above 10000 nM, above 10000 nM and above 10000 nM.
